According to publication PMC8303886, “Polyphenylglyoxamide-Based Amphiphilic Small Molecular Peptidomimetics as Antibacterial Agents with Anti-Biofilm Activity” (International Journal of Molecular Sciences, 2021):
Where “and” joins values, the source holds several entries; their conditions need not be identical. Equal values may be shown once. Read-outs that look alike come from different tables or passages of the source.

How the values were obtained:
S. aureus (SA38) [1] = assay: Minimum inhibitory concentration (MIC) assay against S. aureus; format: cell-based, Staphylococcus aureus; conditions: Staphylococcus aureus, S. aureus SA38; read-out: MIC S. aureus
P. aeruginosa (PAO1) [2] = assay: Minimum inhibitory concentration (MIC) assay against P. aeruginosa; format: cell-based; conditions: Pseudomonas aeruginosa
[3] = system: pre-established S. aureus biofilms; assay: Disruption of pre-established S. aureus biofilms (crystal violet assay); format: cell-based, Staphylococcus aureus
Method: As bacterial biofilms are one of the major challenges in treating bacterial infection, the ability of the synthesised peptidomimetics to disrupt pre-established biofilms was investigated.
(§1) Bacterial cultures (S. aureus and E. coli) were cultured in MHB at 37 °C with shaking at 120 rpm for 24 h. The resulting bacterial culture was washed twice with MHB with centrifugation after each wash. The bacterial solution was then diluted with fresh MHB to a turbidity of OD660 = 0.1 in MHB (equivalent to 10^8 colony forming unit (CFU)/mL of bacteria), followed by diluting to 10^6 CFU/mL in MHB. A total of 200 µL of the bacterial solution was dispensed to wells in a flat-bottom 96-well plate (Costar). The biofilm was then grown in the plate at 37 °C for 24 h. After incubation, loosely bound cells were washed away with 1× phosphate-buffered saline (PBS, pH 7.4). The biofilms were then supplemented with different concentrations of peptidomimetics dissolved in DMSO and incubated at 37 °C with shaking at 120 rpm for a further 24 h. Biofilms adhered on the plate substratum were quantified, using crystal violet staining as described previously. The experiment was performed in triplicate.

[4] = system: MRC-5 normal human lung fibroblasts; assay: MTT cytotoxicity assay; format: cell-based; conditions: Homo sapiens, MRC5, 72 h, 72 h drug incubation, read-out: IC50 against MRC-5 normal human lung fibroblasts
Method: The IC50 values of the tested peptidomimetics were determined from a dose-response curve. […] The therapeutic indices for each tested peptidomimetic against Gram-positive S. aureus and Gram-negative E. coli were calculated by dividing the IC50 value against human cells by the corresponding MIC value (Table 2).
The toxicity of the peptidomimetics against normal human lung fibroblasts MRC-5 cells was measured, using an MTT (3-(4,5-dimethylthiazol-2-yl)-2,5-diphenyltetrazolium bromide) (Sigma Aldrich, St. Louis, MO, USA) colorimetric assay. The cells were cultured in minimal essential medium (MEM, Invitrogen) containing 10% foetal bovine serum (FBS). The cells were maintained at 37 °C in 5% CO2 as an adherent monolayer and was passaged upon reaching confluence by standard cell culture techniques. MRC-5 cells were seeded at 5000 cells/well in 96-well plates to ensure full confluence (quiescence) and left overnight to adhere to the plate wells. The adherent cells were treated with 1–500 μM of compounds by dissolving in DMSO and serially diluting with media. TY-01 was used as the positive control. The final concentration of DMSO was 0.5% (v/v). After the 72 h drug incubation, […] stock MTT solution (5 mg/mL) was added, and the cells were incubated for another 3.5–4 h. The MTT solution containing media was carefully aspirated without displacing the purple crystals from the bottom, and […] acid-isopropanol was added to all wells and mixed slowly by shaking with an orbital shaker to dissolve the dark blue crystals. […] The determination of IC50 values was performed using GraphPad Prism 7 (GraphPad, San Diego, CA, USA). Each experiment was performed in triplicate and was repeated in three independent experiments.

E. coli (K12) [5] = assay: Minimum inhibitory concentration (MIC) assay against E. coli; format: cell-based; conditions: Escherichia coli
S. aureus (SA38) [6] = conditions: previously reported, cited from earlier work
P. aeruginosa (PAO1) [7] = system: P. aeruginosa (PAO1); parameters: method as in PMID 32947921; conditions: previously reported, cited from earlier work
E. coli (K12) [8] = system: E. coli (K12); parameters: method as in PMID 32947921; conditions: previously reported, cited from earlier work
[9] = system: pre-established E. coli biofilms; assay: Disruption of pre-established E. coli biofilms (crystal violet assay); format: cell-based, Escherichia coli; conditions: 2× MIC, 24 h treatment (64 μM for 17c)
Method: as §1

[10] = highest concentration tested 250 μM
[11] = 4× MIC, 24 h treatment (32 μM for 17c)

Structure (SMILES) | melting point [°C] | MIC (S. aureus (SA38) [1]) | MIC (P. aeruginosa (PAO1) [2]; [10]) [µM] | MIC (E. coli (K12) [5]) | disruption of pre-established S. aureus biofilms ([3]; 1× MIC, 24 h treatment) | IC50 [4] | further results
CCCCCCCCCCCCCCCCS(=O)(=O)Nc1ccc(-c2ccccc2)cc1C(=O)C(=O)NCCCN(C)C [Compound 12c, N-(3-(Dimethylamino)propyl)-2-(4-(hexadecylsulfonamido)-[1,1′-biphenyl]-3-yl)-2-oxoacetamide] | 76.7 to 79.4 | > 250 µM and > 153 µg/mL |  |  |  |  | 
CCCCCCCCCCCCCCCCS(=O)(=O)Nc1ccccc1C(=O)C(=O)NCCC[N+](C)(C)C.[I-] [Compound 18a, 3-(2-(2-(Hexadecylsulfonamido)phenyl)-2-oxoacetamido)-N,N,N-trimethylpropan-1-aminium iodide] |  | 8 µM and 5.4 µg/mL | > 250 | > 250 µM | 20–36% | 52.4 µM and 35.6 µg/mL | 
CCCCCCCCS(=O)(=O)Nc1ccc(-c2ccccc2)cc1C(=O)C(=O)NCCC[N+](C)(C)C [Compound 16c] |  |  |  |  |  |  | MIC S. aureus (S. aureus (SA38) [6]; listed as 2, 16c): 16 μM and 10 μg/mL; MIC S. aureus (S. aureus (SA38) [6]; listed as 2): 16 µM; MIC S. aureus (S. aureus (SA38) [6]): 10 µg/mL; MIC P. aeruginosa (P. aeruginosa (PAO1) [7]; listed as 2, 16c): 125 μM and 80 μg/mL; MIC P. aeruginosa (P. aeruginosa (PAO1) [7]): 125 μM and 80 μg/mL; MIC E. coli (E. coli (K12) [8]; listed as 2, 16c): 32 μM and 21 μg/mL; MIC E. coli (E. coli (K12) [8]; listed as 2): 32 µM
CCCCCCCCCCCCS(=O)(=O)Nc1ccc(Br)cc1C(=O)C(=O)NCCC[N+](C)(C)C.[I-] [Compound 17b, 3-(2-(5-Bromo-2-(dodecylsulfonamido)phenyl)-2-oxoacetamido)-N,N,N-trimethylpropan-1-aminium iodide] |  | 8 µM and 5.6 µg/mL | > 250 | 32 µM and 22 µg/mL | 20–36% | 18.3 µM and 12.9 µg/mL | disruption of pre-established E. coli biofilms [9]: 31%; MIC (P. aeruginosa (PAO1) [2]): > 176 µg/mL; disruption of pre-established S. aureus biofilms [3, 11]: 38%
CCCCCCCCS(=O)(=O)Nc1ccc(-c2ccccc2)cc1C(=O)C(=O)NCCCNC(=N)N [Compound 33c] |  |  |  |  |  |  | MIC S. aureus (S. aureus (SA38) [6]): 8 μM and 4.4 μg/mL; MIC P. aeruginosa (P. aeruginosa (PAO1) [7]): 63 μM and 35 μg/mL; MIC E. coli (E. coli (K12) [8]): 63 μM and 35 μg/mL
CCCCCCCCS(=O)(=O)Nc1ccc(-c2ccc(-c3ccccc3)cc2)cc1C(=O)C(=O)NCCCNC(=N)N.Cl [Compound 33d, N-(3-Guanidinopropyl)-2-(4-(octylsulfonamido)-[1,1′:4′,1″-terphenyl]-3-yl)-2-oxoacetamide hydrochloride] | 49.6 to 50.1 | 16 µM and 10 µg/mL |  |  |  | 16.9 µM and 10.6 µg/mL | 

Now from value to compound, other results behind:

melting point [°C] | MIC (S. aureus (SA38) [1]) | MIC (P. aeruginosa (PAO1) [2]; [10]) [µM] | MIC (E. coli (K12) [5]) | Structure (SMILES) | disruption of pre-established S. aureus biofilms ([3]; 1× MIC, 24 h treatment) | IC50 [4] | further results
73.2 to 73.5 | 32 µM and 19 µg/mL |  |  | CCCCCCCCCCCCS(=O)(=O)Nc1ccc(-c2ccccc2)cc1C(=O)C(=O)NCCCNC(=N)N.Cl [Compound 34c, 2-(4-(Dodecylsulfonamido)-[1,1′-biphenyl]-3-yl)-N-(3-guanidinopropyl)-2-oxoacetamide hydrochloride] |  |  | 
74.5 to 77.1 | > 250 µM and > 166 µg/mL |  |  | CCCCCCCCCCCCCCCCS(=O)(=O)Nc1ccc(-c2ccccc2)cc1C(=O)C(=O)NCCCNC(=N)N.Cl [Compound 35c, N-(3-Guanidinopropyl)-2-(4-(hexadecylsulfonamido)-[1,1′-biphenyl]-3-yl)-2-oxoacetamide hydrochloride] |  |  | 
64.3 to 66.6 | > 250 µM and > 167 µg/mL |  |  | CCCCCCCCCCCCCCCCS(=O)(=O)Nc1ccc(Br)cc1C(=O)C(=O)NCCCNC(=N)N.Cl [Compound 35b, 2-(5-Bromo-2-(hexadecylsulfonamido)phenyl)-N-(3-guanidinopropyl)-2-oxoacetamide hydrochloride] |  |  | 
50 to 50.1 | 16 µM and 9.8 µg/mL | > 250 | > 250 µM and > 153 µg/mL | CCCCCCCCCCCCS(=O)(=O)Nc1ccc(Br)cc1C(=O)C(=O)NCCCNC(=N)N.Cl [Compound 34b, 2-(5-Bromo-2-(dodecylsulfonamido)phenyl)-N-(3-guanidinopropyl)-2-oxoacetamide hydrochloride] | 20–36% and 36% | 21.1 µM and 14.8 µg/mL | MIC (P. aeruginosa (PAO1) [2]): > 153 µg/mL; disruption of pre-established S. aureus biofilms [3, 11]: 42%
